Measurements as given in ChEMBL document CHEMBL5331096, “Pseudo-irreversible butyrylcholinesterase inhibitors: Structure-activity relationships, computational and crystallographic study of the N-dialkyl O-arylcarbamate warhead” (Eur J Med Chem, 2023).
pIC50, pKi: −log10 of the molar value. Activity calls are given as the source filed them. The rule behind the calls is not given here.

What was measured:
Acetylcholinesterase [1] = biological target: T1, Acetylcholinesterase (Homo sapiens, UniProt P22303); assay: Inhibition of human AChE assessed as residual activity using acetylthiocholine iodide as substrate at 100 uM preincubated for 30 mins followed by substrate addition and measured for 2 mins by spectrophotometry based Ellman's method relative to control; conditions: time 32.0 min
T1 sequence (P22303 whole entry): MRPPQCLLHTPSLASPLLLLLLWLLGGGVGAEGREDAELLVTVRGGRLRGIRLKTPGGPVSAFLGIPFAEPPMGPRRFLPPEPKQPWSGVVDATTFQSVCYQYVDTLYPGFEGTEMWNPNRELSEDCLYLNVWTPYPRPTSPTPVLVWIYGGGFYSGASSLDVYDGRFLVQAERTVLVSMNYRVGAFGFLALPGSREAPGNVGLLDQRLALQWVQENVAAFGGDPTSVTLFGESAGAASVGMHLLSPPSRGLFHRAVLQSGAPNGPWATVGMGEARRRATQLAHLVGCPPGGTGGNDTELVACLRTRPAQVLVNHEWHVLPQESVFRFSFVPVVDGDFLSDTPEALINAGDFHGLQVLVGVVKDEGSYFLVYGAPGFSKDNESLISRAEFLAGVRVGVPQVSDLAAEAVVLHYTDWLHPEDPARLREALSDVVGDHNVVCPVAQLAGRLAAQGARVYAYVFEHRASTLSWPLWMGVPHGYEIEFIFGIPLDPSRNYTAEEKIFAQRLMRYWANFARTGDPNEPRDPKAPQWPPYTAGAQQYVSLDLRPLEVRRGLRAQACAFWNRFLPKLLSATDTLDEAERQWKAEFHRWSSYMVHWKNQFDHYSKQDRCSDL

Cholinesterase [2] = biological target: T2, Cholinesterase (Homo sapiens, UniProt P06276); assay: Time dependent inhibition of human BChE using butyrylthiocholine iodide as substrate preincubated for 30 mins followed by substrate addition and measured for 2 mins by spectrophotometry based Ellman's method; conditions: time 32.0 min
T2 sequence (P06276 whole entry): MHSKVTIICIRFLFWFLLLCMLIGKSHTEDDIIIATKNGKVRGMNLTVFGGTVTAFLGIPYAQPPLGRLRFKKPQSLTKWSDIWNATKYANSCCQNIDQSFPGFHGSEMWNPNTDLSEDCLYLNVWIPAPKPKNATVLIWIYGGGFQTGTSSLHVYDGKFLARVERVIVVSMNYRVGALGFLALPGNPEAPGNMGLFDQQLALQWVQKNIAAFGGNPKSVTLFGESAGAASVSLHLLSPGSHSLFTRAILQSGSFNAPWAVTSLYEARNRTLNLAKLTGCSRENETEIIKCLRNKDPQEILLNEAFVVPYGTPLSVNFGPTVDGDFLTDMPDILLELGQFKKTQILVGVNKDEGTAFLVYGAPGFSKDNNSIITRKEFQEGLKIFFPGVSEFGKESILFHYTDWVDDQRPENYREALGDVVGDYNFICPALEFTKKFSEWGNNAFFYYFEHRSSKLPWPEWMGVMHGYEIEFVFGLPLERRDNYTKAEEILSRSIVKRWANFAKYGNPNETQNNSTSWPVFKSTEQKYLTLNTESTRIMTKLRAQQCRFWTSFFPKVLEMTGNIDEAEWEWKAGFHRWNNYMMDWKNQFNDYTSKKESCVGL

Cholinesterase [3] = biological target: T2, Cholinesterase; assay: Inhibition of human BChE using butyrylthiocholine iodide as substrate preincubated for 30 mins followed by substrate addition and measured for 2 mins by spectrophotometry based Ellman's method
Acetylcholinesterase [4] = biological target: T1, Acetylcholinesterase; assay: Time dependent inhibition of human AChE using acetylthiocholine iodide as substrate preincubated for 30 mins followed by substrate addition and measured for 2 mins by spectrophotometry based Ellman's method; conditions: time 32.0 min
Cholinesterase [5] = biological target: T2, Cholinesterase; assay: Inhibition of human BChE using butyrylthiocholine iodide as substrate preincubated for 5 mins followed by substrate addition and measured for 2 mins by spectrophotometry based Ellman's method
Cholinesterase [6] = biological target: T2, Cholinesterase; assay: Time dependent inhibition of human BChE using butyrylthiocholine iodide as substrate preincubated for 5 mins followed by substrate addition and measured for 2 mins by spectrophotometry based Ellman's method; conditions: time 7.0 min
Acetylcholinesterase [7] = biological target: T1, Acetylcholinesterase; assay: Inhibition of human AChE using acetylthiocholine iodide as substrate preincubated for 5 mins followed by substrate addition and measured for 2 mins by spectrophotometry based Ellman's method
Acetylcholinesterase [8] = biological target: T1, Acetylcholinesterase; assay: Time dependent inhibition of human AChE using acetylthiocholine iodide as substrate preincubated for 5 mins followed by substrate addition and measured for 2 mins by spectrophotometry based Ellman's method; conditions: time 7.0 min
Cholinesterase [9] = biological target: T2, Cholinesterase; assay: Binding affinity to human BChE assessed as gibbs free energy change
Cholinesterase [10] = biological target: T2, Cholinesterase; assay: Binding affinity to human BChE assessed as decarbamoylation rate constant at 25 degree C incubated for 1 hr by Ellman's method
Cholinesterase [11] = biological target: T2, Cholinesterase; assay: Binding affinity to human BChE assessed as half life incubated for 1 hr by Ellman's method
Cholinesterase [12] = biological target: T2, Cholinesterase; assay: Binding affinity to human BChE assessed as carbamoylation rate constant by Ellman's method
Cholinesterase [13] = biological target: T2, Cholinesterase; assay: Binding affinity to human BChE assessed as pseudo-first order inhibition rate at 5 nM by Ellman's method
Cholinesterase [14] = biological target: T2, Cholinesterase; assay: Binding affinity to human BChE assessed as inhibition constant
[15] = biological target: Cholinesterases; ACHE & BCHE (Homo sapiens) (UniProt P06276+P22303); assay: Selectivity ratio of IC50 for human AChE to IC50 for human BChE; format: protein assay
Sequence of Cholinesterases; ACHE & BCHE (Homo sapiens) (P06276 whole entry, looked up): as the sequence (P06276 whole entry) above
Sequence of Cholinesterases; ACHE & BCHE (Homo sapiens) (P22303 whole entry, looked up): as the sequence (P22303 whole entry) above

SH-SY5Y = assay: Cytotoxicity against human SH-SY5Y cells assessed as inhibition of cell growth measured after 48 hrs by MTS assay; format: functional, cell-based
Cholinesterase [16] = biological target: T2, Cholinesterase; assay: Binding affinity to human BChE assessed as pseudo-first order inhibition rate at 20 nM by Ellman's method
HepG2 = assay: Cytotoxicity against human HepG2 cells assessed as inhibition of cell growth measured after 48 hrs by MTS assay; format: functional, cell-based; conditions: HepG2, 48 h
Cholinesterase [17] = biological target: T2, Cholinesterase; assay: Binding affinity to human BChE assessed as pseudo-first order inhibition rate at 10 nM by Ellman's method
Cholinesterase [18] = biological target: T2, Cholinesterase; assay: Binding affinity to human BChE assessed as pseudo-first order inhibition rate at 50 nM by Ellman's method
Acetylcholinesterase [19] = biological target: T1, Acetylcholinesterase; assay: Binding affinity to recombinant human AChE assessed as appearance of fluorescent bands at 10 uM incubated for 4 hrs in presence of BW284c51 by Western blot analysis
Cholinesterase [20] = biological target: T2, Cholinesterase; assay: Binding affinity to human BChE plasma assessed as appearance of fluorescent bands at 10 uM incubated for 30 mins in presence of isoOMPA by Western blot analysis; format: cell-free
Cholinesterase [21] = biological target: T2, Cholinesterase; assay: Binding affinity to recombinant human BChE assessed as appearance of fluorescent bands at 10 uM incubated for 4 hrs by Western blot analysis
Cholinesterase [22] = biological target: T2, Cholinesterase; assay: Binding affinity to human BChE plasma assessed as appearance of fluorescent bands at 10 uM incubated for 30 mins in presence of BW284c51 by Western blot analysis; format: cell-free
Acetylcholinesterase [23] = biological target: T1, Acetylcholinesterase; assay: Binding affinity to recombinant human AChE assessed as appearance of fluorescent bands at 10 uM incubated for 4 hrs by Western blot analysis
Cholinesterase [24] = biological target: T2, Cholinesterase; assay: Binding affinity to human BChE plasma assessed as appearance of fluorescent bands at 10 uM incubated for 30 mins in presence of ethopropazine by Western blot analysis; format: cell-free
Cholinesterase [25] = biological target: T2, Cholinesterase; assay: Binding affinity to human BChE plasma assessed as appearance of fluorescent bands at 10 uM incubated for 30 mins by Western blot analysis; format: cell-free

With `CCN(C)C(=O)Oc1cccc2cc[nH]c12` the Activity (Acetylcholinesterase [1]) was 56.2%, the inhibition (Cholinesterase [2]) was “Active” and the pIC50 (Cholinesterase [3]) was 5.86. For the same compound, the inhibition (Acetylcholinesterase [4]) was “inactive”.

In the case of `C#CCN(CC)C(=O)Oc1cccc2c(CN(C)CCC3CCCCCC3)c[nH]c12`, the pIC50 (Cholinesterase [5]) was 7.66, the inhibition (Cholinesterase [6]) was “Active” and the pIC50 (Acetylcholinesterase [7]) was 5.12. For the same compound, the inhibition (Acetylcholinesterase [8]) was “Active”.

In the case of `CN(CCC1CCCCCC1)Cc1c[nH]c2c(OC(=O)N3CCCCC3)cccc12`, the pIC50 (Cholinesterase [5]) was 8.28, the pIC50 (Acetylcholinesterase [7]) was 6.28 and the inhibition (Acetylcholinesterase [8]) was “Active”.

For `O=C(Oc1cccc2cc[nH]c12)N1CCOCC1`, the Activity (Acetylcholinesterase [1]) was 19.3%, the inhibition (Cholinesterase [2]) was “inactive” and the pIC50 (Cholinesterase [3]) was 5.62.

With `CC(C)N(C(=O)Oc1cccc2c(CN(C)CCC3CCCCCC3)c[nH]c12)C(C)C` the pIC50 (Cholinesterase [5]) was 6.64, the inhibition (Cholinesterase [6]) was “inactive” and the pIC50 (Acetylcholinesterase [7]) was 5.33. For the same compound, the inhibition (Acetylcholinesterase [8]) was “inactive”.

In the case of `CC(C)N(C(=O)Oc1ccc2c(CN(C)CCC3CCCCCC3)c[nH]c2c1)C(C)C`, the pIC50 (Cholinesterase [5]) was 7.06, the inhibition (Cholinesterase [6]) was “inactive” and the pIC50 (Acetylcholinesterase [7]) was 6.47. For the same compound, the inhibition (Acetylcholinesterase [8]) was “inactive”.

`CCN(C)C(=O)Oc1cccc2c(CN(C)CCC3CCCCCC3)c[nH]c12` was tested, and the pIC50 (Cholinesterase [5]) was 7.98, the inhibition (Cholinesterase [6]) was “Active” and the pIC50 (Acetylcholinesterase [7]) was 5.17. For the same compound, the inhibition (Acetylcholinesterase [8]) was “Active”.

`CN(CCC1CCCCCC1)Cc1c[nH]c2c(OC(=O)N(C)Cc3ccccc3)cccc12` was tested, and the deltaG (Cholinesterase [9]) was 25.2 kcal/mol, the K (Cholinesterase [10]) was 0.007 h⁻¹ and the pIC50 (Cholinesterase [5]) was 7.94. For the same compound, the inhibition (Cholinesterase [6]) was “Active”, the T1/2 (Cholinesterase [11]) was 92.2 h and the pIC50 (Acetylcholinesterase [7]) was 6.27. The inhibition (Acetylcholinesterase [8]) was “Active”.

With `CN(CCC1CCCCCC1)Cc1c[nH]c2c(OC(=O)N(C)C)cccc12` the K (Cholinesterase [12]) was 0.177 M⁻¹ s⁻¹, the deltaG (Cholinesterase [9]) was 24 kcal/mol and the K (Cholinesterase [10]) was 0.053 h⁻¹. For the same compound, the pIC50 (Cholinesterase [5]) was 8.75, the Kobs (Cholinesterase [13]) was 0.447 min⁻¹ and the inhibition (Cholinesterase [6]) was “Active”. It also gave a pKi (Cholinesterase [14]) of 8.98, a T1/2 (Cholinesterase [11]) of 13 h and a pIC50 (Acetylcholinesterase [7]) of 6.25. For the same compound, the Ratio IC50 [15] was 300, the pIC50 (SH-SY5Y) was 5.24 and the Kobs (Cholinesterase [16]) was 1.85 min⁻¹. For the same compound, the pIC50 (HepG2) was 5.15, the inhibition (Acetylcholinesterase [8]) was “Active” and the Kobs (Cholinesterase [17]) was 0.677 min⁻¹. It also gave a Kobs (Cholinesterase [18]) of 3.75 min⁻¹.

With `CON(C)C(=O)Oc1cccc2c(CN(C)CCC3CCCCCC3)c[nH]c12` the pIC50 (Cholinesterase [5]) was 6.80, the pIC50 (Acetylcholinesterase [7]) was 5.96 and the inhibition (Acetylcholinesterase [8]) was “inactive”.

With `C#CCN(CC#C)C(=O)Oc1cccc2c(CN(C)CCC3CCCCCC3)c[nH]c12` the deltaG (Cholinesterase [9]) was 24 kcal/mol, the K (Cholinesterase [10]) was 0.062 h⁻¹ and the pIC50 (Cholinesterase [5]) was 7.48. For the same compound, the T1/2 (Cholinesterase [11]) was 11.2 h, the pIC50 (Acetylcholinesterase [7]) was 6.33 and the inhibition (Acetylcholinesterase [8]) was “Active”.

`C#CCN(C)C(=O)Oc1cccc2c(CN(C)CCC3CCCCCC3)c[nH]c12` gave a deltaG (Cholinesterase [9]) of 24.8 kcal/mol, a K (Cholinesterase [10]) of 0.014 h⁻¹ and a pIC50 (Cholinesterase [5]) of 8.11. For the same compound, the T1/2 (Cholinesterase [11]) was 49 h, the pIC50 (Acetylcholinesterase [7]) was 6.47 and the inhibition (Acetylcholinesterase [8]) was “Active”.

In the case of `C#CCCCCCCCCCN(C)C(=O)Oc1cccc2c(CN(C)CCC3CCCCCC3)c[nH]c12`, the pIC50 (Cholinesterase [5]) was 8.42, the inhibition (Cholinesterase [6]) was “Active” and the Activity (Acetylcholinesterase [19]) was “inactive”. The Activity (Cholinesterase [20]) was “inactive”, the Activity (Cholinesterase [21]) was “Active” and the pIC50 (Acetylcholinesterase [7]) was 6.91. The Activity (Cholinesterase [22]) was “inactive”, the Activity (Acetylcholinesterase [23]) was “Active” and the inhibition (Acetylcholinesterase [8]) was “Active”. The Activity (Cholinesterase [24]) was “inactive” and the Activity (Cholinesterase [25]) was “Active”.

With `C#CCCCN(C)C(=O)Oc1cccc2c(CN(C)CCC3CCCCCC3)c[nH]c12` the deltaG (Cholinesterase [9]) was 24.8 kcal/mol, the K (Cholinesterase [10]) was 0.015 h⁻¹ and the pIC50 (Cholinesterase [5]) was 7.91. The inhibition (Cholinesterase [6]) was “Active”, the T1/2 (Cholinesterase [11]) was 46.5 h and the pIC50 (Acetylcholinesterase [7]) was 5.97. For the same compound, the inhibition (Acetylcholinesterase [8]) was “Active”.

With `CN(C)C(=O)Oc1cccc2cc[nH]c12` the Activity (Acetylcholinesterase [1]) was 2.4%, the inhibition (Cholinesterase [2]) was “Active” and the pIC50 (Cholinesterase [3]) was 5.78. For the same compound, the inhibition (Acetylcholinesterase [4]) was “Active”.

`C#CCN(C(=O)Oc1cccc2c(CN(C)CCC3CCCCCC3)c[nH]c12)C(C)C` was tested, and the pIC50 (Cholinesterase [5]) was 7.09, the inhibition (Cholinesterase [6]) was “inactive” and the pIC50 (Acetylcholinesterase [7]) was 5.27. The inhibition (Acetylcholinesterase [8]) was “inactive”.

In the case of `CN(CCC1CCCCCC1)Cc1c[nH]c2c(OC(=O)N(C)C(C)(C)C)cccc12`, the pIC50 (Cholinesterase [5]) was 6.83, the inhibition (Cholinesterase [6]) was “inactive” and the pIC50 (Acetylcholinesterase [7]) was 5.00. For the same compound, the inhibition (Acetylcholinesterase [8]) was “inactive”.

With `CN(CCC1CCCCCC1)Cc1c[nH]c2c(O)cccc12` the pIC50 (Cholinesterase [5]) was 6.43 and the pIC50 (Acetylcholinesterase [7]) was 4.94.

With `C#CCN(C)C(=O)Oc1ccc2c(CN(C)CCC3CCCCCC3)c[nH]c2c1` the pIC50 (Cholinesterase [5]) was 7.99, the inhibition (Cholinesterase [6]) was “inactive” and the pIC50 (Acetylcholinesterase [7]) was 5.84. The inhibition (Acetylcholinesterase [8]) was “inactive”.

For `CN(CCC1CCCCCC1)Cc1c[nH]c2c(OC(=O)N(C)N(C)C)cccc12`, the pIC50 (Cholinesterase [5]) was 7.88, the inhibition (Cholinesterase [6]) was “Active” and the pIC50 (Acetylcholinesterase [7]) was 5.25. The inhibition (Acetylcholinesterase [8]) was “Active”.

With `CCN(CC)C(=O)Oc1cccc2c(CN(C)CCC3CCCCCC3)c[nH]c12` the deltaG (Cholinesterase [9]) was 25.9 kcal/mol, the K (Cholinesterase [10]) was 0.002 h⁻¹ and the pIC50 (Cholinesterase [5]) was 7.22. The inhibition (Cholinesterase [6]) was “Active”, the T1/2 (Cholinesterase [11]) was 318 h and the pIC50 (Acetylcholinesterase [7]) was 5.25. For the same compound, the inhibition (Acetylcholinesterase [8]) was “inactive”.

For `CC(C)N(C(=O)Oc1cccc2cc[nH]c12)C(C)C`, the Activity (Acetylcholinesterase [1]) was 66.5%, the inhibition (Cholinesterase [2]) was “inactive” and the pIC50 (Cholinesterase [3]) was 4.89. The inhibition (Acetylcholinesterase [4]) was “inactive”.

`CC(C)N(C)C(=O)Oc1cccc2c(CN(C)CCC3CCCCCC3)c[nH]c12` was tested, and the pIC50 (Cholinesterase [5]) was 6.94, the inhibition (Cholinesterase [6]) was “Active” and the pIC50 (Acetylcholinesterase [7]) was 5.55. For the same compound, the inhibition (Acetylcholinesterase [8]) was “Active”.

In the case of `CN(CCC1CCCCCC1)Cc1c[nH]c2c(OC(=O)N3CCOCC3)cccc12`, the pIC50 (Cholinesterase [5]) was 7.94, the pIC50 (Acetylcholinesterase [7]) was 5.45 and the inhibition (Acetylcholinesterase [8]) was “Active”.

`CN(CCC1CCCCCC1)Cc1c[nH]c2cc(OC(=O)N(C)C)ccc12` was tested, and the pIC50 (Cholinesterase [5]) was 7.34, the inhibition (Cholinesterase [6]) was “Active” and the pIC50 (Acetylcholinesterase [7]) was 5.17. For the same compound, the inhibition (Acetylcholinesterase [8]) was “Active”.
